Measured values reported in a melting point compilation (Tetko et al.; mined from patent text by program, amines drawn as free bases though some values may be those of a salt).

Row | Compound | melting point [°C]
1 | CC(C)(C)C(=O)c1c[nH]c2ncc(-c3ccoc3)nc12 | 256 to 258
2 | N#CC(=O)c1ccccc1CF | 41
3 | O=c1ccc(-c2c(-c3ccccc3)nn3ccccc23)nn1C1CCCCC1=NO (centres undefined) | 238 to 240
4 | Cc1ccc(-c2cc(C(F)(F)F)n3cnc(C#N)c3n2)cc1 | 197
5 | O=C(Nc1cccc(-c2ccnc3c(C(=O)c4cccs4)cnn23)c1)c1ccco1 | > 240
6 | CC(C)CC(CO)(CO)CC(C)C | 75 to 77
7 | C=CCOc1cccc(-n2cnc(-c3nc(CC)no3)c2)c1 | 73 to 74
8 | COc1cc(NC(=O)OC(C)(C)C)c([N+](=O)[O-])cc1C#Cc1ccccc1 | 129
9 | Nc1ncc2c(n1)-c1ccc(Cl)cc1C(c1ccccc1Cl)=NC2 | 240 to 241
10 | O=C(O)Cc1c(C(=O)c2cc(Cl)ccn2)[nH]c2ccc(Cl)cc12 | 243 to 244
11 | O=C1CN(c2ccc(Cl)cc2)C(=O)N1S(=O)(=O)c1ccc(Cl)cc1 | 239 to 240
12 | CC(=O)C=Cc1ccc(O)cc1 | 104 to 105
13 | Clc1ccc2c(c1)C(c1ccccc1)=NCc1n[nH]nc1-2 | 199 to 200
14 | O=C(Nc1ccc(F)cc1F)NC1(c2cccs2)CCCCC1 | 175 to 177
15 | CC(=O)Nc1cc(C2=NOC(c3cc(Cl)cc(Cl)c3)(C(F)(F)F)C2)ccc1-n1cncn1 (centres undefined) | 230 to 233
16 | Fc1cccc(CC[C@H]2CNCCN2)c1 | 95 to 99
17 | O=c1c2ccccc2nc(-c2sc(Nc3ccc(Cl)cc3)nc2-c2ccccc2)n1-c1ccc(Cl)cc1 | 271 to 272
18 | CC1(C)CCC(C)(C)c2cc([N+](=O)[O-])c(O)cc21 | 139

Row | Compound | melting point [°C]
19 | CN1CCN(C(=O)Cn2nc(-c3ccccc3O)nc2-c2ccccc2O)CC1 | 199 to 201
20 | CCC1(O)CCC2C3CCC4CC(=O)CC(C)C4(C)C3CCC21C (centres undefined) | 152
21 | C[C@@H]1C[C@](C)(O)[C@H](C)N1c1ccc(C#N)c(C(F)(F)F)c1 | 115 to 117
22 | Oc1c(Cl)cc(Cl)cc1Cc1cc(F)cc(Cc2cc(Cl)cc(Cl)c2O)c1O | 168
23 | CNc1ccc(C(=O)OC)c(S(=O)(=O)NC(C)(C)C)c1 | 120 to 124
24 | CCOCCCOc1ccc(-c2ccc3c(c2)C=C(C(=O)OC)CCN3)cc1 | 99 to 102
25 | O=C(Nc1c(F)cccc1F)c1ccc(-n2nc(C(F)(F)F)cc2C2CC2)cc1 | 145 to 147
26 | CC(=O)C1(Nc2ccccc2)CCN(CCc2ccccc2)CC1 | 101
27 | CS(=O)(=O)c1ccc(-c2oncc2C(=O)C2CC2)cc1Cl | 148 to 150
28 | CC(CCC(=O)NC(C)(C)C)C1CC=C2C3=C(CCC21C)C1(C)CCC(O)C(C)(C)C1CC3 (centres undefined) | 171 to 176
29 | CCC(=O)N1N=C(c2ccc([N+](=O)[O-])cc2)c2cc(Cl)ccc2CC1C (centres undefined) | 160 to 161
30 | O=c1cc(COC2CCCCO2)occ1OCc1ccc(CBr)cc1 (centres undefined) | 83.5
31 | Cc1cc(N)nc(CCc2nc3cc(-c4cccc(O)c4)cnc3[nH]2)c1 | 162
32 | CON=C(C#N)c1ccccc1COc1cccc(Cl)c1 | 62 to 63
33 | COC(=O)CCCCCCCCCC1=C(C)C(=O)C(OC)=C(OC)C1=O | 37 to 38
34 | Cc1coc(C)c1N(C)c1cc(C(=O)N(C)C)cc2c1nc(C)n2C | 163 to 164
35 | CC(C)c1cc2nc(N)sc2cc1Sc1ccc(CCc2ccc(F)cc2)c(CCC2=C(O)CC(C(C)C)OC2=O)c1 (centres undefined) | 204 to 206
36 | CC(=O)OC1CSC(Oc2ccc(-c3cc4ccccc4o3)nc2)C(OC(C)=O)C1OC(C)=O (centres undefined) | 179

Next, values leading:

Row | melting point [°C] | Compound
37 | 192 to 195 | Cc1cc2nn(C)c(=O)n2nc1-c1cccc(N)c1
38 | 190 | CNC(=O)c1c(I)c(NC(C)=O)c(I)c(C(=O)NCCC(=O)O)c1I
39 | 108 to 123 | COc1ccc(CS(=O)(=O)Cc2ccc(OC)cc2)cc1
40 | 108 to 112 | CC(C)(C)c1ccc(-c2cc(-c3ccccc3)c(-c3ccccc3)s2)cc1
41 | 154 to 157 | Clc1ccc(CNc2nc(Cl)cc(Cl)n2)cc1
42 | 47 to 50 | COC(=O)C=C(N)CC(=O)OC
43 | 118 to 119 | COc1ccc(C(=O)c2ccc(Oc3ccccc3)cc2)cc1
44 | 180 to 182 | O=C(Cn1nc(-c2ccccc2O)nc1-c1ccccc1O)NCCN1CCOCC1
45 | 36 to 37 | CC(=O)OCc1c(Br)cccc1[N+](=O)[O-]
46 | 52 to 54 | CCC(NC(Cc1cccnc1C)=NC#N)c1ccccc1 (centres undefined)
47 | 224 to 225 | COc1ccc(-c2cc(-c3nccs3)c(=O)n(C)c2-c2ccncc2)cc1
48 | 207 | CN(CC1=C(C#N)C(c2cccc3nonc23)c2c[nH]nc2N1)C(=O)OC(C)(C)C (centres undefined)
49 | 209 to 210 | OC(CNC(=S)NCc1ccc(Cl)cc1)(Cn1cncn1)c1ccc(Cl)cc1Cl (centres undefined)
50 | 128 to 129 | COC(=O)c1ccc(-n2cccc2)cc1
51 | 62 to 63 | CCCCc1nc(CC(=O)O)c(-c2ccco2)o1
52 | 122 to 125 | OC(=S)c1cc(C(F)(F)F)ccc1O
53 | 153 to 155 | CCCCc1nc2ccccc2c(=O)[nH]1
54 | 83 to 84 | COc1cccc(C(=O)N(C)C)c1-c1ccccc1
55 | 196 to 197 | CN1C(=O)CC[C@]2(C)c3ccc(Sc4nccc5sccc45)cc3CC[C@@H]12

Row | melting point [°C] | Compound
56 | 174 | COC(=O)c1csc(C)c1NS(=O)(=O)NC(=O)Nc1nc(OC)cc(OC)n1
57 | 133 | COc1ccnc(C#N)c1OC
58 | 105 to 106 | C=CCNC(=O)N(N(CCCl)S(C)(=O)=O)S(C)(=O)=O
59 | > 260 | O=C1c2ccccc2C(=O)c2sc(-c3cccs3)nc21
60 | 67 to 69 | CCCNC(=O)C1(CCCCNc2ccc(Br)nc2)c2ccccc2-c2ccccc21
61 | 103 to 105 | CN(CCCCCCCCC(=O)O)c1cnc(-c2ccccc2)c(-c2ccccc2)n1
62 | 94 to 95 | O=Cc1ccc(OCc2ccccc2)c(F)c1
63 | 244 to 245 | Cc1cc(C#N)cc(C(=O)c2c(C(C)C)c(=O)[nH]c(=O)n2CC2(CC(=O)O)CC2)c1
64 | 179 to 181 | COc1ccc(-c2cc3ccccc3[nH]2)cc1NC(=S)N[C@H](C)c1ccccc1
65 | 130 to 131 | CCCSC(=S)N1Cc2[nH]c3ccccc3c2CC1CO (centres undefined)
66 | 297 to 299 | COC(=O)c1ccc(C(=O)NCCNC(=O)c2ccc(C(=O)OC)cc2)cc1
67 | 143 to 146 | CNCCCn1c(-c2ccc(OC)cc2)csc1=Nc1ccccc1
68 | 62 to 63 | O=[N+]([O-])c1cc(Cl)c(OCC(F)(F)C(F)(F)F)c(Cl)c1F
69 | 124 to 127 | Oc1cc(Oc2ncc(C(F)(F)F)cc2Cl)ccc1Br
70 | 239 to 241 | CN1C(=O)C(NC(=O)Nc2ccc(F)cc2)C(=O)N(C23CC4CC(CC(C4)C2)C3)c2ccccc21 (centres undefined)
71 | 153 to 155 | C=CCOc1ccc(C)c2c1C(C)(C)C(=O)N2
72 | 135 to 140 | CC1CC(=O)c2c(ccc(Cl)c2Cl)O1 (centres undefined)
73 | 185 to 186 | Nc1nc(N)c(-c2cc(Cl)cc(Cl)c2Cl)nc1CO
74 | 121 to 123 | COc1ccc2c(Cc3c(Cl)cncc3Cl)nncc2c1C=CCCCc1ccccc1
